Reference: article PMC7004565, “Nucleotide inhibition of the pancreatic ATP-sensitive K^+ channel explored with patch-clamp fluorometry” (eLife, 2020)
Blank lines part the entries; values can stand above or below the compound they belong to.

Legend:
Kir6.2-GFP + SUR1 [1] = biological target: T1, Kir6.2-GFP + SUR1 (Homo sapiens, UniProt Q14654); assay: Current inhibition in excised inside-out patches; format: biochemical; set-up: ANAP labelling is specific and only full-length Kir6.2 is expressed at the cell membrane; expressed in transfected cells; host or cells: HEK-293T
Experimental: (§1) Currents were measured from patches from cells expressing KATP that were excised in the absence of Mg^2+. Under such conditions, nucleotides can bind to both sites on SUR1, but no activation occurs, allowing inhibitory currents to be measured in isolation ([Gribble et al., 1998]; [Ueda et al., 1999]; [Puljung et al., 2019]).

Kir6.2-GFP + SUR1 [2] = biological target: T1, Kir6.2-GFP + SUR1; assay: Current inhibition in excised inside-out patches (patch-clamp fluorometry); format: biochemical; set-up: full length, fully ANAP-labelled Kir6.2 protein was produced and successfully trafficked to the membrane in the presence of SUR1; expressed in transfected cells; host or cells: HEK-293T
Experimental: as §1
Currents were measured as described above.

Kir6.2-GFP (no SUR1) = biological target: T2, Kir6.2-GFP (no SUR1) (Homo sapiens, UniProt Q14654); assay: Current inhibition in excised inside-out patches; format: biochemical
T2 construct: ANAP labelling is specific and only full-length Kir6.2 is expressed at the cell membrane; expressed in transfected cells; host or cells: HEK-293T
T2 sequence (Q14654 1-390): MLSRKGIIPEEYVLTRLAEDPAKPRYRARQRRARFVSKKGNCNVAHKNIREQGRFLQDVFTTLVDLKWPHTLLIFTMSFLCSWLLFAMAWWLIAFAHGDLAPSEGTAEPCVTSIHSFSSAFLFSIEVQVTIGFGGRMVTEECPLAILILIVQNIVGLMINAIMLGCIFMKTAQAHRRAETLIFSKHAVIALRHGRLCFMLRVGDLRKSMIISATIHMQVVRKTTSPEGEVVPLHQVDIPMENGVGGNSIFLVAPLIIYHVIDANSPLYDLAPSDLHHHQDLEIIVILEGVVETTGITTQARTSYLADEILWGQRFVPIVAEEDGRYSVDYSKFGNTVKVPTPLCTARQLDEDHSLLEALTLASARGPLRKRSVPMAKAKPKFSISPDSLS
Experimental: as §1

wild-type Kir6.2 + SUR1 = test system: wild-type Kir6.2 + SUR1; set-up: method as in Proks et al., 2010; Vedovato et al., 2015; details: MWC-type model, fits to published data; ref Proks et al., 2010; Vedovato et al., 2015; cited from earlier work
Kir6.2*,C166S-GFP + SUR1 = Kir6.2*,C166S-GFP + SUR1 (Homo sapiens, UniProt Q14654, C166S); assay: Current inhibition in excised inside-out patches (patch-clamp fluorometry)
[3] = test system: second nucleotide binding site of SUR1; set-up: method as in Puljung et al., 2019; details: ref Puljung et al., 2019, cited from earlier work
[4] = excised patches, Hill fit with 1-Imax set to 0, n = 3
[5] = binding to stimulatory second nucleotide binding site of SUR1

T1 sequence (Q09428 whole entry partner, one chain of several): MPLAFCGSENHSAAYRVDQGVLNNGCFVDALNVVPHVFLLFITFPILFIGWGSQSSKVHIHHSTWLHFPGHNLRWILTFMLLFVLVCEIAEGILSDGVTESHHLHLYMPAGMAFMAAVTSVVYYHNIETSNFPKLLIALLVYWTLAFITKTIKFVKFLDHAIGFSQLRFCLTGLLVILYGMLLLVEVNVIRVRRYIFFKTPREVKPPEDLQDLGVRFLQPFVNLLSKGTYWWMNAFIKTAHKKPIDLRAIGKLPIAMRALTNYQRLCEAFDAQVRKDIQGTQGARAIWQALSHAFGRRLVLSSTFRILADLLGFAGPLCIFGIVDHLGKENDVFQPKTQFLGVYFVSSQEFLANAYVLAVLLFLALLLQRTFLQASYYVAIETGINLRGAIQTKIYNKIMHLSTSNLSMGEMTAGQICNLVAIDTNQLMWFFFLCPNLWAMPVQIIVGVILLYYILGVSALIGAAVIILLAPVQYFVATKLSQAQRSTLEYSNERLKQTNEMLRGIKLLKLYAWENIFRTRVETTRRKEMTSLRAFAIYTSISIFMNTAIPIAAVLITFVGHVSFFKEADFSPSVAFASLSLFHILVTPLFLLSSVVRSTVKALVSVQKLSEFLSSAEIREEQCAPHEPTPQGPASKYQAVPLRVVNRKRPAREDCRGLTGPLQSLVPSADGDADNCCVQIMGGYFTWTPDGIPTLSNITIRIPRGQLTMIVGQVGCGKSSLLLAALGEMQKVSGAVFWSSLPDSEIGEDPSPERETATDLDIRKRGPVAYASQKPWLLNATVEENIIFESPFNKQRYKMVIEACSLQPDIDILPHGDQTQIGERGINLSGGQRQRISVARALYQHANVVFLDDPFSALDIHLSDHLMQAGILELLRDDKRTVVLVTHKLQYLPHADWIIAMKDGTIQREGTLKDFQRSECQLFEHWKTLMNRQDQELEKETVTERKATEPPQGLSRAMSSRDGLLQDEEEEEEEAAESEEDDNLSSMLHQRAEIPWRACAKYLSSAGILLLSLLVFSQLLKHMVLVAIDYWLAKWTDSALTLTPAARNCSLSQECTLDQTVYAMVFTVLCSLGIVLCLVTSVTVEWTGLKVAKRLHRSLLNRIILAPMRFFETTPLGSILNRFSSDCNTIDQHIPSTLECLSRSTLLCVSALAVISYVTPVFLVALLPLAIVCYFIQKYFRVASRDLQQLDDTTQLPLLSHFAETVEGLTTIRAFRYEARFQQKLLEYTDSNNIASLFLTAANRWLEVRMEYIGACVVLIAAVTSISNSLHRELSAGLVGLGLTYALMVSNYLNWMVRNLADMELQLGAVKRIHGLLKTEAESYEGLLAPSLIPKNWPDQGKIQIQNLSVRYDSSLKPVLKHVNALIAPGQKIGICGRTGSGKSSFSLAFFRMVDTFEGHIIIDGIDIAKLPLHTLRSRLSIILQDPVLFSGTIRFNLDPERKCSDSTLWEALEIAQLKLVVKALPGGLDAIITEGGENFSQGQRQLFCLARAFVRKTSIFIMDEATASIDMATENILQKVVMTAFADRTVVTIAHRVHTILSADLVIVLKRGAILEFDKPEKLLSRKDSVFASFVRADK
Sequence of Kir6.2*,C166S-GFP + SUR1 (Q14654 whole entry C166S): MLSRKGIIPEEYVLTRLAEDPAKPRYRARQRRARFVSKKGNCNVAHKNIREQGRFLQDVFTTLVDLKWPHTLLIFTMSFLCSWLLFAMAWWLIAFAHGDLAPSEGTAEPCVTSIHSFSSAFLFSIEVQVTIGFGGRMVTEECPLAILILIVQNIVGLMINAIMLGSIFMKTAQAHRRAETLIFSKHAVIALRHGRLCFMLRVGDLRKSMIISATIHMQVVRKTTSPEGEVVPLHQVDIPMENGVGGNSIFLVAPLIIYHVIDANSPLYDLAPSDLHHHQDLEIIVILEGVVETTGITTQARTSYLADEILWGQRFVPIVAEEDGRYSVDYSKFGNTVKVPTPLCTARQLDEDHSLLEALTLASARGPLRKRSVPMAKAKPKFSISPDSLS
Sequence of Kir6.2*,C166S-GFP + SUR1 (Q09428 whole entry partner): as the sequence (Q09428 whole entry partner, one chain of several) above

h (Hill coefficient) current inhibition (Kir6.2-GFP + SUR1 [1]; Mg2+-free, Hill fit): 1.28 | h (Hill coefficient) current inhibition (Kir6.2-GFP + SUR1 [2]; excised inside-out patches, Mg2+-free, Hill fit): 1.42 | h (Hill coefficient) current inhibition (Kir6.2-GFP (no SUR1); excised inside-out patches, no SUR1, Mg2+-free, Hill fit): 1.15 | current inhibition at 10 mM (Kir6.2*,C166S-GFP + SUR1; 10 mM ATP, excised patch): only partial inhibition
Compound: Nc1ncnc2c1ncn2[C@@H]1O[C@H](COP(=O)(O)OP(=O)(O)OP(=O)(O)O)[C@@H](O)[C@H]1O [ATP]
D (wild-type Kir6.2 + SUR1): 0.03 | KA (wild-type Kir6.2 + SUR1): 30000 M⁻¹

inhibition at 100 µM (Kir6.2-GFP + SUR1 [1]; 100 µM tolbutamide, n = 3): 46.5% | inhibition at 100 µM (Kir6.2-GFP + SUR1 [2]; 100 µM tolbutamide, excised inside-out patches, n = 4): 57.7% | current inhibition by tolbutamide (Kir6.2-GFP (no SUR1); 100 µM tolbutamide, absence of SUR1, n = 5): not affected
Compound: CCCCNC(=O)NS(=O)(=O)c1ccc(C)cc1 [tolbutamide]

h (Hill coefficient) current inhibition (Kir6.2-GFP + SUR1 [2]; [4]): 0.87 | IC50 (Kir6.2-GFP + SUR1 [2]; excised patches, Hill fit with 1-Imax set to 0, n = 3, read-out: IC50 current inhibition): 63.1 mM | h (Hill coefficient) current inhibition (Kir6.2*,C166S-GFP + SUR1; [4]): 1.12
Compound: CCN(CC)CC [triethylamine]

Compound: MgTNP-ADP
KA [3, 5]: 58000 M⁻¹ | Kd [3, 5]: 0.017 mM | E (factor by which binding to SUR1 stabilised channel opening) ([3]; currents and binding measured in separate preparations): 2.2
